The values that follow are results of earlier work, collected in patent EP2749553A1, “Process for preparation of enantiomerically pure S-(+)-N, N-dimethyl-a-[2-(naphthalenyloxy)ethyl] benzenemethanamine” (Deva Holding Anonim Sirketi, priority 2012, dated 2014).

The conditions of series [1]: free base.
For series [2] the following is noted: clinical studies; (S)- versus (R)-enantiomer.

SMILES strings stand for the structures.

Take `CN(C)[C@@H](CCOc1cccc2ccccc12)c1ccccc1` [Dapoxetine, S-(+)-N, N-dimethyl-a-[2-(naphthalenyloxy)ethyl] benzenemethanamine]: in series [1], the in vivo solubility result is recorded as “poor” and the water solubility entry is “poor”. The in vivo absorption result (free base) was “low”. For the same compound, for the setting “plasma”, the “initial plasma half life” value was “about 1 h”. For the same compound, where the note is “rapid elimination”, the initial half-life was 1 to 2 h. Besides, the “times more potent than (R)-enantiomer” value in series [2] is recorded as 3.5 times.
